Assay results reported in patent publication US7718613B2, “Armed peptides” (priority 2001, dated 2010).
The star is where a group is joined. Myristoyl = CCCCCCCCCCCCCC(=O)*

Tests used:
[1] = Cytolytic activity of pH-responsive peptides on calcein liposomes at different pH; conditions: liposomes 4 μM lipid; 14 nM peptide 2, 20 nM peptide 7, 45 nM peptide 9; FIG. 4
Description: Liposomes encapsulating calcein dye were prepared by an extrusion method (Biochim. Biophys. Acta, 812 (1985) 55). Phophatidylcholine (50 mg) and cholesterol (13.08 mg) which had been dissolved in 4 ml of 50% v/v chloroform methanol solution were evaporated to form a lipid film in a round bottom flask. If it is essential to follow the fate of liposomes a lipohilic-dye such as DiI (50 μg) could be incorporated into the lipid film prior to hydration. The film was then hydrated with 4 ml of 120 mM calcein solution prepared in 10 mM sodium phosphate 20 mM Sodium chloride buffer pH 7.4. Liposomes were formed by 10 extrusion cycles through 0.2 micron or 0.1 um polycarbonate filters using the Liposofast 100 (Avestin) extruder device. The non encapsulated dye was removed by gel filtration on a PD-10 column using iso-osmotic buffer. The total lipid concentration of the liposomes was measured by the Stewart assay and adjusted to 3 mg per ml.
The cytolytic activity of pH-responsive peptides was followed by adding 2 or 3 μl of liposomes to a 2 ml assay volume and continually recording fluorescence. Buffers were made of 10 mM Na phosphate, 140 mM NaCl, 1 mM EDTA, 5 mM HEPES at several different pH values. […] In the experiments 2 ml of 10 mM Na phosphate, 140 mM NaCl, 1 mM EDTA, 5 mM HEPES buffer (at pH values indicated on the figure) containing liposomes (4 μM lipid) and (A) 14 nM peptide 2, (B) 20 nM peptide 7 (C) 45 nM peptide 9. In all cases peptides were added indicated by sharp dip in fluorescence were used. The pH values are as indicated for each trace. […] In general, it is well documented that many proteins including receptors, enzymes and antibodies has pH optimum usually closer to physiological value. On either side of the pH optimum the binding activity is reduced. However in general as activity profile is typically bell shape most proteins would tolerate at least a pH unit shift from optimum. Obviously the closer the results are to pH 7.4 the higher chances their are for efficient binding with target proteins or receptors.

KHT tumour = assay: Ex vivo release of calcein in tumour slices after i.v. peptide liposome complex; parameters: species or system C3H mice; conditions: 200 μl complex i.v., tumours excised 3 hrs post inoculum, buffer pH 8 changed to pH 5.8; FIG. 11
Description: Liposomes encapsulating Calcein (120 mM) and with label DiI (the dye to lipid ratio was around 100 μg dye: 100 mg PC) were used. C3H syngenic mice 8-10 weeks old weighing 20-25 g were used. Subcutaneous tumour was implanted using KHT cells (5×10^6 cells/animal) on the dorsal side after shaving the mice. Typically 200 μl of peptide liposome complex (100 μl of dual dye liposomes+100 μl of peptide 0.1 mg/ml) were administered intravenously per mice and tumours excised 3 hrs post inoculum. The tumour was removed aseptically and kept in PBS pH 8.0 buffer and thin sections (160 μm-200 μm) were cut on the slicing machine, and examined under a fluorescence microscope. The pH of the buffer was modulated by adding 400 μl of NaP buffer pH 5.8 while simultaneously removing 400 μl of pH 8 buffer. Changes in fluorescence intensity were recorded. The state of liposome peptide complex is then determined, whether intact or lysed by measuring fluorescence in tissue slices before-and after incubation in acidic buffer. The increase in fluorescence in the acidic buffer indicates the quantity of liposomes that were still intact and able to respond at the time of sacrifice.

[2] = Liposome-peptide integral complex: pH-triggered calcein release and stability
From the text: A fatty acid incorporated on the N-terminal of peptide anchors the sequence with liposomes to form integral complex which can then be used as single stable reagent that can be triggered to release the contents-of the liposomoes when the pH is ideal (i.e physiological 7.4) or acidic (e.g 6.2). In the first instance we prepared the liposome-peptide complex at a predetermined ratio of lipid-to peptide (30:1) in pH 8 buffer using peptide 10. […] The complex between liposomes and peptide was formed by adding peptide to […] of 10 mM NaP containing 140 mM NaCl, 1 mM EDTA, 5 mM Hepes pH 8 buffer, containing 100 μl of calcein encapsulating liposomes. The mixture was incubated for 20 mins to form the complex prior to use. In order to ascertain that the lysis is occurring due to the formation of complex and not as the action of the peptide per se it was essential to purify the liposome-peptide complex. The peptide to lipid ratio in this complex is 1:30. The complex was applied to a Sepharose CL-6B column. Fractions corresponding to liposomes were collected as clearly visible to the eye. Aliquots of these fractions were then tested for lytic activity at acidic and physiological pH values. The key aim was to establish that the peptide is liposome associated and would thus be eluted with liposome fraction in the void volume. We used 100 μl complex (a column purified fraction) and followed the release of Calcein at two different pH values.
FIG. 8A. […] Upper curve pH 5.8. Lower curve pH 7.4.
2 ml buffer (10 mM Na phosphate, 140 mM NaCl, 1 mM EDTA, 5 mM HEPES)+50 μl purified complex. Lipsomes used were 50 nm extruded. Curves top to bottom are pH 6.2, 6.4, 6.7, 7.0, 7.4
Complex 20 μl liposomes+60 μl pH 8 buffer+20 μl peptide (0.1 mg/ml) prepared and used within 2 minutes. 10 μl was added to each of the cuvettes containing 2 ml buffers. Top curve pH 6.2 (triton was added towards the end indicated by sharp dip in fluorescence to check full lysis), the lower curve is at pH 7.4. Samples measured simultaneously.
5 μL of complex in 2 ml of buffer tested 20 minutes after preparation. Upper curve pH 6.2, Lower curve pH 7.4.
5 μL of complex in 2 ml of buffer tested 5 hrs after preparation. Upper curve pH 6.2 and lower curve pH 7.4.
5 μL of complex in 2 ml of buffer tested 24 hrs after preparation curve pH 6.2, Lower curve pH 7.4.

## Myr-WEAALAEALAEALAEHLARALAEALEALAA-Amide (Myristoyl-WEAALAEALAEALAEHLARALAEALEALAA-NH2; SMILES CCCCCCCCCCCCCC(=O)N[C@@H](Cc1c[nH]c2ccccc12)C(=O)N[C@@H](CCC(=O)O)C(=O)N[C@@H](C)C(=O)N[C@@H](C)C(=O)N[C@@H](CC(C)C)C(=O)N[C@@H](C)C(=O)N[C@@H](CCC(=O)O)C(=O)N[C@@H](C)C(=O)N[C@@H](CC(C)C)C(=O)N[C@@H](C)C(=O)N[C@@H](CCC(=O)O)C(=O)N[C@@H](C)C(=O)N[C@@H](CC(C)C)C(=O)N[C@@H](C)C(=O)N[C@@H](CCC(=O)O)C(=O)N[C@@H](Cc1c[nH]cn1)C(=O)N[C@@H](CC(C)C)C(=O)N[C@@H](C)C(=O)N[C@@H](CCCNC(=N)N)C(=O)N[C@@H](C)C(=O)N[C@@H](CC(C)C)C(=O)N[C@@H](C)C(=O)N[C@@H](CCC(=O)O)C(=O)N[C@@H](C)C(=O)N[C@@H](CC(C)C)C(=O)N[C@@H](CCC(=O)O)C(=O)N[C@@H](C)C(=O)N[C@@H](CC(C)C)C(=O)N[C@@H](C)C(=O)N[C@@H](C)C(N)=O) [peptide 9]
[1]
  pH of triggering (pH profile of calcein release from liposomes): ~7 pH
KHT tumour
  release of calcein in tumour slices on acidification: able to trigger release of calcein
[2]; calcein/DiI liposomes, tested 20 minutes, 5 hrs and 24 hrs after preparation, pH 6.2 vs 7.4, FIGS. 8D, E, F
  stability of the complex: retention of the pH triggering of properties
[2]; peptide to lipid ratio 1:300, pH 6.2 to 7.4, FIG. 8B
  triggering properties of complex after purification: triggering properties are retained
